# Publication PMC6266276 (Viruses, 2018)
# “And” between values parts separate entries of the source, which are not always exact repeats. Equal values may be shown once. “Also recorded” adds a separate entry of the source. Read-outs that look alike come from different tables or passages of the source.
# Legend:
# [1] = tested on: phosphorylated eIF4E (p-eIF4E); assay type: cell-based
# [2] = tested on: herpes simplex virus type 1 (HSV-1); assay: microbe, parasite or virus in culture; assay type: cell-based, herpes simplex virus type 1 (HSV-1) strain F
# [3] = in vitro; details: human
# [4] = tested on: pseudorabies virus (PRV); assay type: cell-based, pseudorabies virus (PRV) strain Fa
# [5] = tested on: vesicular stomatitis virus (VSV); assay type: cell-based, vesicular stomatitis virus (VSV) strain Indiana
# [6] = tested on: mouse hepatitis coronavirus (MHV); details: HHT at 125 nM ref 53; cited from earlier work
# [7] = tested on: hepatitis B virus (HBV); details: HHT at concentrations below 2 µM ref 52; cited from earlier work
# [8] = tested on: acute myeloid leukemia; details: mice, HHT 1.0 mg/kg ref 26; cited from earlier work
# [9] = pig, in vivo
# [10] = tested on: HEK293T cells
# [11] = mouse, in vivo
# [12] = in vitro; details: African green monkey
# [13] = tested on: HeLa cells
# [14] = tested on: Vero cells
# [15] = tested on: Newcastle disease virus (NDV); assay: microbe, parasite or virus in culture; assay type: cell-based, Newcastle disease virus (NDV) strain NA-1; details: for IC50: read-out: IC50, half maximal inhibitory concentration
# [16] = tested on: porcine epidemic diarrhea virus (PEDV); design: species or system porcine epidemic diarrhea virus (PEDV) strain CV777; details: pig, in vivo
# [17] = tested on: chikungunya virus; details: HHT at 1 µM ref 38; cited from earlier work
# [18] = tested on: bovine viral diarrhea virus (BVDV); details: HHT at concentrations below 2 µM ref 52; cited from earlier work
# [19] = tested on: Newcastle disease virus (NDV); design: species or system Newcastle disease virus (NDV) strain NA-1; details: in vivo, 0.2 mg/kg
# [20] = chicken, in vivo
# [21] = tested on: avian influenza virus (AIV); design: species or system avian influenza virus (AIV) strain H9-WD; details: in vivo
# [22] = tested on: porcine epidemic diarrhea virus (PEDV); assay: microbe, parasite or virus in culture; assay type: cell-based, porcine epidemic diarrhea virus (PEDV) strain CV777; details: for IC50: Porcine epidemic diarrhea virus, Vero, read-out: IC50, half maximal inhibitory concentration
# [23] = tested on: Newcastle disease virus (NDV); design: species or system Newcastle disease virus (NDV) strain NA-1; details: in vivo
# [24] = tested on: VSV; details: cited from earlier work
compound,measurement,setting,value
Nc1ncnc2n[nH]c(Nc3ccc(F)cc3)c12 [CGP57380],cellular total eIF4E level,[1],without an effect on total eIF4E protein level
same,p-eIF4E levels,[1],prevent the phosphorylation of eIF4E
"COC(=O)C[C@](O)(CCCC(C)(C)O)C(=O)O[C@@H]1C(OC)=C[C@]23CCCN2CCc2cc4c(cc2[C@H]13)OCO4 [HHT, homoharringtonine]",HSV-ICP8 level,[2],strong reduction
same,"SI, Selectivity index = CC50/IC50",[2],40
same,viral replication,[2],strong reduction in viral replication
same,IC50,"[2]; Human alphaherpesvirus 1, Vero, read-out: IC50, half maximal inhibitory concentration",0.139 µM
same,CC50,[3],1.92 µM
same,PRV-gC level,[4],strong reduction
same,viral replication,[4],strong reduction in viral replication
same,"VSV-G levels, time-of-addition",[5],strong reductions
same,"inhibitory effect against viral infection, pre-treatment",[5],minimal inhibitory effect
same,"reduction of the viral yields, co-/post-treatment",[5],complete reduction
same,reduction of viral yields,[5],1.5 orders of magnitude
same,viral protein G levels of VSV (VSV-G),[5],strong reduction
same,viral reduction,[5],6.5 orders of magnitude and 5 orders of magnitude
same,viral yields,[5],dramatically reduced
same,inhibition of MHV in vitro,[6],high-magnitude inhibition
same,antiviral efficacy on HBV DNA levels,[7],no protective effects
same,acute myeloid leukemia in vivo,[8],completely eradicate acute myeloid leukemia
same,50% toxicity dose,[9],0.2 mg/kg
same,animals for which side effects were fatal,[9]; 0.2 mg/kg,about 50%
same,accumulation of Mcl-1,[1],gradually reduced
same,cellular total eIF4E level,[1],unaffected
same,p-eIF4E induced by ectopic expression of wild-type eIF4E,[1],decreased the accumulation of p-eIF4E
same,p-eIF4E levels,[1],gradually reduced
same,"p-eIF4E levels induced by viral infection, in parallel with viral protein",[1],gradually reduced
same,cell viability,[10],no measurable decrease in cell viability
same,inflammatory reaction in lung,[11],No obvious inflammatory reaction
same,CC50,[12],5.58 µM
same,cell viability,[13],No measurable decrease in cell viability
same,cell viability,[14],No measurable decrease in cell viability
same,NDV-NP level,[15],strong reduction
same,"SI, Selectivity index = CC50/IC50",[15],107
same,concentration that completely inhibited infection,[15],100 nM
same,morphology and number of HeLa cells compared to mock infected sample,[15],no difference in morphology and number
same,production of recombinant NDV expressing GFP,[15],greatly reduced
same,IC90,"[15]; avian paramyxovirus 1, HeLa, 24 h",0.04 µM
same,IC50,"[15]; avian paramyxovirus 1, HeLa",0.018 µM
same,inhibitory activity and death,[16],optimal inhibitory activity without death
same,pathological change in tissues and symptoms,[16]; 0.05 mg/kg,survived without pathogenic changes in tissues and symptoms
same,mRNA levels of PEDV-N in blood,[16]; 0.05 mg/kg/day,greatly decreaseed
same,mRNA levels of PEDV-N in the intestine,[16]; 0.05 mg/kg/day,greatly decreaseed
same,inhibition of viral yield,[17],2–3 orders of magnitude
same,antiviral efficacy on BVDV infection,[18],no protective effects
same,mRNA level of NDV-NP in blood,[19],significantly decreased
same,mRNA level of NDV-NP in the liver and lung,[19],significantly decreased
same,pathological change in tissues and symptoms,[19],did not exhibit a pathological change in tissues or symptoms; also recorded: survived without pathogenic changes in tissues and symptoms
same,50% toxicity dose,[20],0.4 mg/kg
same,lung inflammation,[21],decreased local inflammatory reaction but aggravated overall inflammation; also recorded: moderately attenuated inflammation
same,number of AIV positive cells in lung,[21],No obvious reduction
same,"PEDV-N levels, time-of-addition",[22],strong reductions
same,PEDV-N protein and mRNA levels,[22],strong reduction
same,"SI, Selectivity index = CC50/IC50",[22],50
same,concentration that completely inhibited infection,[22],500 nM
same,"infection rate, time-of-addition",[22],less than 30%
same,reduction of viral yields,[22],1.9 orders of magnitude
same,viral yields,[22],completely suppressed
same,IC50,[22],0.112 µM
same,effect on viral infection in chicken embryos,[23],slight effect; also recorded: completely inhibited viral infection
same,reduction of HAU values,[23],one and three
O=c1c(O)c(-c2ccc(O)c(O)c2)oc2cc(O)cc(O)c12 [Quercetin],CC50,[12],> 1000 µM
same,"SI, Selectivity index = CC50/IC50",[22],>145
same,IC50,[22],6.9 µM
NC(=O)c1ncn([C@@H]2O[C@H](CO)[C@@H](O)[C@H]2O)n1 [Ribavirin],CC50,[3],2820 µM
same,concentrations at which antiviral activity was displayed,[5],over 100 µM
same,"SI, Selectivity index = CC50/IC50",[15],64
same,IC50,"[15]; avian paramyxovirus 1, HeLa",44.2 µM
same,inhibition of VSV titer in cells,[24],2.5 orders of magnitude
